Results reported in patent US20080167246A1, “Ophthalmic and Contact Lens Solutions Containing Peptides as Preservative” (BioConcept Laboratories, priority 2003, published 2008).
Non-standard residues stand in square brackets, D forms with d. Residues, ends and D or L forms follow the SMILES beside them. No end group written: not given here.

Columns and labels:
Type in all cases: cell-based
[1] = test system: Staphylococcus aureus (ATCC 6538); assay: Disinfection Efficacy antimicrobial assay (ISO 14729), S. aureus; details: for biocidal effect on S. aureus (in words): 100 ug/mL
Method: (§1) Peptides were tested using a conventional Disinfection Efficacy antimicrobial assay (ISO 14729), commonly used in evaluating biocidal efficacy of preservatives for use in contact lens care solutions. Briefly, a known concentration of organisms are inoculated into the test solution, and allowed to incubate for a given amount of time, after which they are neutralized to inactivate the preservative. Samples are serially diluted and plated in duplicate onto petri plates onto which growth medium is poured. The plates are incubated at 35° C. (bacteria) or 25° C. (yeast and molds) for 48 hours. The average number of colony forming units is determined on countable plates (the dilution at which between 30 to 300 cfu/plate are observed, except when colonies are observed only on the −1 dilution plates). The log reduction resulting from exposure to the test solution is calculated based on the growth of positive controls plated simultaneously. Recovery controls, to confirm that the test solution is neutralized, and viability controls are also plated.
(§2) Method: The Disinfection Efficacy test was used with the following organisms: Staphylococcus aureus (ATCC 6538), Pseudomonas aeruginosa (ATCC 9027), Serratia marcesens (ATCC 13880), Candida albicans (ATCC 10231), and Fusarium solani (ATCC 36031). The peptides were diluted in water at a concentration of 100 ug/mL (adjusted for purity). Organism cultures were prepared to result in an inoculum concentration between 10^7 and 10^8 cfu/mL. The test solutions were inoculated for a 1 hour and a 3 hour exposure period, neutralized with DEB with 0.1% SLS added, and plated in duplicate.
(§3) Method: The Disinfection Efficacy test was used as in experiment 2 using Staphylococcus aureus and Pseudomonas aeruginosa. The peptides were diluted in water at concentrations of 100, 33.3, 10, 3.33, and 1 ug/mL. The test solutions were inoculated for 1 hour, neutralized, and plated in duplicate.

[2] = test system: Pseudomonas aeruginosa (ATCC 9027); assay: Disinfection Efficacy antimicrobial assay (ISO 14729), P. aeruginosa; details: for biocidal effect on P. aeruginosa (in words): 100 ug/mL; for lowest concentration resulting in complete kill of P. aeruginosa: 1 hour, tested at 100, 33.3, 10, 3.33 and 1 ug/mL
Method: as §1, §2, §3

[3] = test system: Serratia marcesens (ATCC 13880); assay: Disinfection Efficacy antimicrobial assay (ISO 14729), S. marcescens; details: Exp. 2, 1 hour exposure; for biocidal effect on S. marcescens (in words): 100 ug/mL
Method: as §1, §2

[4] = test system: Candida albicans (ATCC 10231); assay: Disinfection Efficacy antimicrobial assay (ISO 14729), C. albicans; details: Exp. 2, 1 hour exposure; for biocidal effect on C. albicans (in words): 100 ug/mL
Method: as §1
Method: Candida albicans (ATCC 10231) stock cultures were incubated and prepared to result in cell suspensions containing between 10^7 and 10^8 cfu/mL. The Disinfection Efficacy test, as described above, was used, with the following modification: Since the standard Dey-Engley broth used to neutralize preservatives was not necessarily expected to neutralize the peptide, 0.1% sodium laurel sulfate (SLS) was added to the neutralization solution. Controls confirmed that this was effective in neutralizing the peptide test solution.
Method: The Disinfection Efficacy test was used with the following organisms: Staphylococcus aureus (ATCC 6538), Pseudomonas aeruginosa (ATCC 9027), Serratia marcesens (ATCC 13880), Candida albicans (ATCC 10231), and Fusarium solani (ATCC 36031). The peptides were diluted in water at a concentration of 100 ug/mL (adjusted for purity). Organism cultures were prepared to result in an inoculum concentration between 10^7 and 10^8 cfu/mL. […]

[5] = test system: Fusarium solani (ATCC 36031); assay: Disinfection Efficacy antimicrobial assay (ISO 14729), F. solani; details: Exp. 2, 1 hour exposure; for biocidal effect on F. solani (in words): 100 ug/mL
Method: as §1, §2

[6] = test system: Staphylococcus aureus, Pseudomonas aeruginosa, Serratia marcesens, Candida albicans, Fusarium solani; assay: Disinfection Efficacy test, all 5 organisms of Experiment 2; details: Exp. 2; 100 ug/mL, one hour exposure
Method: as §1
Method: The Disinfection Efficacy test was used with the following organisms: Staphylococcus aureus (ATCC 6538), Pseudomonas aeruginosa (ATCC 9027), Serratia marcesens (ATCC 13880), Candida albicans (ATCC 10231), and Fusarium solani (ATCC 36031). The peptides were diluted in water at a concentration of 100 ug/mL (adjusted for purity). […]

[7] = Exp. 3, Conc. 3.33 μg/mL, T = 1 hr
[8] = Exp. 3, Conc. 33 μg/mL, T = 1 hr
[9] = Exp. 3, Conc. 100 μg/mL, T = 1 hr
[10] = Exp. 2, 100 ug/mL in water, 1 hour exposure

Molecule	biocidal effect on S. aureus (in words) ([1]; Exp. 2, 1 hour exposure)	biocidal effect on P. aeruginosa (in words) ([2]; Exp. 2, 1 hour exposure)	biocidal effect on S. marcescens (in words) [3]	biocidal effect on C. albicans (in words) [4]	biocidal effect on F. solani (in words) [5]	lowest concentration resulting in complete kill of P. aeruginosa ([2]; Exp. 3) [µg/mL]	average cfu/mL [2, 7] [cfu/mL]	average cfu/mL [2, 8] [cfu/mL]	average cfu/mL [2, 9] [cfu/mL]	other results
C[C@@H](N)C(=O)N[C@H](CCCCN)C(=O)N[C@H](CCCNC(=N)N)C(=O)N[C@H](Cc1c[nH]cn1)C(=O)N[C@H](Cc1c[nH]cn1)C(=O)NCC(=O)N[C@H](Cc1ccc(O)cc1)C(=O)N[C@H](CCCCN)C(=O)N[C@H](CCCNC(=N)N)C(=O)N[C@H](CCCCN)C(=O)N[C@H](Cc1ccccc1)C(=O)N[C@H](Cc1c[nH]cn1)C(N)=O [P-113D] (H-[dA][dK][dR][dH][dH]G[dY][dK][dR][dK][dF][dH]-NH2; N-terminus and C-terminus assumed)	no effect	effective	no effect	effective	effective					
AKRHHGYKRKFH-NH2 (C-terminus assumed) [P-113]	no effect	effective	no effect	effective	effective	3.33	5.00E+00	0.00E+00	0.00E+00	effectiveness against S. aureus (in words) ([1]; Exp. 3, 1 to 100 ug/mL, 1 hour): not effective
FAKKFAKKFKKFAKKFAKFAFAF [D2A21]						1	0.00E+00	0.00E+00	0.00E+00	average cfu/mL [1, 10]: 0.00E+00 cfu/mL; concentration achieving complete kill of S. aureus ([1]; Exp. 3, 1 hour, tested at 100, 33.3, 10, 3.33 and 1 ug/mL): 3.33 µg/mL; average cfu/mL [1, 7]: 0.00E+00 cfu/mL; average cfu/mL [1, 8]: 0.00E+00 cfu/mL; average cfu/mL [1, 9]: 0.00E+00 cfu/mL; average cfu/mL [2, 10]: 0.00E+00 cfu/mL; average cfu/mL ([2]; Exp. 3, Conc. 1 μg/mL, T = 1 hr): 0.00E+00 cfu/mL; average cfu/mL ([2]; Exp. 3, Conc. 10 μg/mL, T = 1 hr): 0.00E+00 cfu/mL; average cfu/mL ([3]; 100 ug/mL in water): 0.00E+00 cfu/mL; average cfu/mL ([4]; 100 ug/mL in water): 0.00E+00 cfu/mL; average cfu/mL ([5]; 100 ug/mL in water): 0.00E+00 cfu/mL; kill of all 5 organisms (in words) [6]: complete kill
